The source of these data is US20030022876A1, “Sustained-release analgesic compounds” (priority 2001, published 2003).

Series [1] is described as follows: Stability (half-life) in human plasma at 37° C., HPLC analysis. The format is in vitro ADME. Conditions: stock solution diluted 10 fold. As for the experimental part:
(§1) This stock solution was diluted 10 fold in either 0.1 M phosphate buffer, pH 7.4, or human plasma, and the working solution was placed in a water bath at 37° C. Samples had been taken every hour for the plasma and every couple of hours for the buffer.

Series [2] in a line: Stability (half-life) in 0.1 M phosphate buffer, pH 7.4, at 37° C., HPLC analysis. The format is physicochemical. Conditions: pH 7.4, 37° C. As for the experimental part: as §1

A word on the half-life: it is how long it takes for the measured level to halve. With `CN1CC[C@]23c4c5ccc(OC(=O)Cc6ccccc6Nc6c(Cl)cccc6Cl)c4O[C@H]2[C@@H](O)C=C[C@H]3[C@H]1C5` [Inventive compound (10)], the half-life at 0.1 mg/ml is 0.35 ± 0.0167 h in series [1] and 2.5 ± 0.5 h in series [2].
Take `COc1ccc2cc(C(C)C(=O)OCOC(=O)Oc3ccc4c5c3O[C@H]3[C@@H](O)C=CC6[C@@H](C4)N(C)CC[C@@]563)ccc2c1` (stereo partly shown) [Inventive compound (16)]: the half-life at 0.1 mg/ml in series [1] is 0.0583 ± 0.01 h; in series [2] it was 7.6 ± 0.5 h.
